# Like-named read-outs stand apart in the source and are kept apart here.
# Test: Water solubility of trehalose at ambient temperature (Experiment 1)
# Assay type: physicochemical
# Conditions: for solubility thermodynamic at 24 h: water
# Experimental: The water solubility of trehalose at ambient temperature was studied by placing into a glass beaker 10 parts by weight of water and 20 parts by weight of hydrous crystalline trehalose, incubating the mixture under stirring conditions at 10°, 15°, 20°, 25°, 30° or 40° C. for 24 hours in an incubator, filtering the resulting mixture, measuring the trehalose concentration of the filtrate, and determining the water solubility of trehalose in an anhydrous form in 100 g water at each temperature.
smiles,measurement,setting,value
"OC[C@H]1O[C@H](O[C@H]2O[C@H](CO)[C@@H](O)[C@H](O)[C@H]2O)[C@H](O)[C@@H](O)[C@@H]1O [Trehalose, α,α-trehalose]",water solubility / crystallization of trehalose (in words),ambient temperature,dissolves in water in a relatively low concentration and readily crystallizes at ambient temperature
same,solubility thermodynamic at 24 h,"10 °C, anhydrous form, read-out: trehalose content (g) dissolved in 100 g water",553 mg/mL
same,solubility thermodynamic at 24 h,"15 °C, anhydrous form, read-out: trehalose content (g) dissolved in 100 g water",618 mg/mL
same,solubility thermodynamic at 24 h,"20 °C, anhydrous form, read-out: trehalose content (g) dissolved in 100 g water",689 mg/mL
same,solubility thermodynamic at 24 h,"25 °C, anhydrous form, read-out: trehalose content (g) dissolved in 100 g water",773 mg/mL
same,solubility thermodynamic at 24 h,"30 °C, anhydrous form, read-out: trehalose content (g) dissolved in 100 g water",866 mg/mL
same,solubility thermodynamic at 24 h,"40 °C, anhydrous form, read-out: trehalose content (g) dissolved in 100 g water",1090 mg/mL
same,solubility thermodynamic at 24 h,"saturated in water, 10 °C, read-out: trehalose concentration (w/w %)",356 mg/mL
same,solubility thermodynamic at 24 h,"saturated in water, 15 °C, read-out: trehalose concentration (w/w %)",382 mg/mL
same,solubility thermodynamic at 24 h,"saturated in water, 20 °C, read-out: trehalose concentration (w/w %)",408 mg/mL
same,solubility thermodynamic at 24 h,"saturated in water, 25 °C, read-out: trehalose concentration (w/w %)",436 mg/mL
same,solubility thermodynamic at 24 h,"saturated in water, 30 °C, read-out: trehalose concentration (w/w %)",464 mg/mL
same,solubility thermodynamic at 24 h,"saturated in water, 40 °C, read-out: trehalose concentration (w/w %)",522 mg/mL

# Source: patent US5892026A, “High Trehalose content syrup” (Kabushiki Kaisha Hayashibara Seibutsu Kagaku Kenkyujo, priority 1995, dated 1999)
